The values below come from patent publication US4547509A, “5,6,7-Quinoline carbanilates and method of treating ischemic heart disease therewith” (USV Pharmaceutical Corp., priority 1983, dated 1985).

pIC50: −log10 of the molar value.

Assay [1] concerns Canine cardiac lipases. In words: Myocardial Lipase Assay. The class given is biochemical. The following applies: 100 μM compound, 3.0% DMSO, triolein emulsion, pH 6.8, tested in duplicate. The method, then:
All compounds were dissolved in DMSO (final concentration 3.0%) and tested in duplicate at a concentration of 100 μm. Canine cardiac lipases were obtained by extracting washed heart membranes with buffer plus heparin and a small amount of Triton X-100 detergent. Because these enzymes are only active at an oil-water interface, the enzyme reaction is run in an oil-water emulsion that contains triolein substrate, Tris buffer (50 mM, pH 6.8) and a small amount of bovine serum albumin (0.5%) added to stabilize the emulsion. A small amount of tritiated triolein was added to the unlabelled triolein substrate. Tritium-labelled oleic acid released by the lipases was extracted into hexane, separated from unreacted triolein and counted in a scintillation counter. Inhibitory agents reduce the amount of radioactivity appearing in the free fatty acid fraction isolated in the extraction procedure.

Assay [2] has as its system rat adipocyte lipolysis. In words: Rat Adipocyte Assay (epinephrine-stimulated lipolysis, glycerol release). Format: cell-based. The note with it: epinephrine 3 μM plus methylisobutylxanthine 10 μM, 1 hour at 37° C.; for inhibition at 30 µM: 30 μM compound, read-out: Adipocyte % Inhib. at 30 μM; for inhibition at 200 µM: 200 μM compound, read-out: Adipocyte % Inhib. at 200 μM; for pIC50: read-out: Adipocyte I50. The method, then:
Abdominal fat pads were removed from male rats weighing 200-250 grams and placed in Krebs-bicarbonate buffer gassed with 95% O2 /5% CO2. The fat pads were digested with collagenase for 1 hour at 37° C., washed twice with Krebs-bicarbonate buffer and distributed among a set of 20 ml plastic counting vials. Two such vials received only buffer and cells (4 ml) but no angonists or antagonists. The remaining vials received epinephrine (3 μM) plus the phosphodiesterase inhibitor methylisobutylxanthine (10 μM). Test compounds were dissolved in DMSO or water to a concentration of 20 mM or 40 μl was added to the buffer plus cells in the counting vials. The final compound concentration for routine screening was 200 μM (final concentration of DMSO=1%).
The cells were incubated for 1 hour at 37° C. under 95% O2 /5% CO2 atmosphere. The incubation was stopped by placing the vials in crushed ice. The cells and medium were transferred to test tubes, centrifuged and the cell layer removed by aspiration. The aqueous phase was assayed for glycerol using the enzyme glycerol dehydrogenase.
The glycerol dehydrogenase assay for glycerol depends on the enzyme catalyzed conversion of glycerol to glyceraldehyde and NAD to NADH. The assay can detect as little as 5-10 nanomoles of glycerol. The aqueous phase, following removal of cells, usually contained about 50 to 80 nanomoles of glycerol per 300 μl of assayed sample if no inhibitory activity was present. Samples from the control tubes (no agonist) usually contained 0-5 nanomoles of glycerol per 300 μl of sample.

For assay [3], the target named is Canine cardiac lipases. In words: Myocardial Lipase Assay. The following applies: triolein emulsion, pH 6.8; read-out: Lipase I50. Format: biochemical.

With `COc1ccc(NC(=O)Oc2ccc3cccnc3c2)cc1` [Example 1], the “Lipase % Inh. at 100 μM” value in assay [1] was 60%. Also, the inhibition at 30 µM in assay [2] amounted to 0%.
Turning to `COc1cccc(NC(=O)Oc2ccc3cccnc3c2)c1` [Example 7, 7-quinolyl-3-methoxy carbanilate], the “Lipase % Inh. at 100 μM” value in assay [1] was found to be 52%. Also, the inhibition at 200 µM in assay [2] is 25%.
For the compound `CCOC(=O)c1ccc(NC(=O)Oc2ccc3cccnc3c2)cc1` [Example 8, 7-quinolyl-4-carbethoxy carbanilate], in assay [1], the “Lipase % Inh. at 100 μM” value worked out at 46%. Further, the inhibition at 200 µM in assay [2] worked out at 18%.
For the compound `COc1ccc(CCNC(=O)Oc2ccc3cccnc3c2)cc1` [Example 12, 7-quinolyl-4-methoxy phenethyl carbamate], the “Lipase % Inh. at 100 μM” value in assay [1] is 97%. In addition, the inhibition at 100 µM in assay [2] (100 μM compound, read-out: Adipocyte % Inhib. at 100 μM) turned out to be 84%.
Turning to `COc1ccc(NC(=O)Oc2ccc3ncccc3c2)cc1` [Example 2, 6-quinolyl-4-methoxy carbanilate], the “Lipase % Inh. at 100 μM” value in assay [1] was 64%. In assay [2], the inhibition at 30 µM is 8%.
As for `O=C(Nc1ccccc1C(F)(F)F)Oc1ccc2cccnc2c1` [Example 11, 7-quinolyl-2-trifluoromethyl carbanilate], in assay [1], the “Lipase % Inh. at 100 μM” value is reported as 12%.
Take `COc1ccccc1NC(=O)Oc1cccc2ncccc12` [Example 6, 5-quinolyl-2-methoxy carbanilate]: the inhibition at 200 µM in assay [2] is 31%. For the same compound, the pIC50 in assay [3] was 4.32.
As to `COc1ccccc1NC(=O)Oc1ccc2cccnc2c1` [Example 4, 7-quinolyl-2-methoxy carbanilate], the pIC50 in assay [2] is 4.10; in assay [3], 4.32.
Take `Cc1ccccc1NC(=O)Oc1ccc2cccnc2c1` [Example 10, 7-quinolyl-2-methyl carbanilate]: the “Lipase % Inh. at 100 μM” value in assay [1] is 45%. Moreover, in assay [2], the inhibition at 200 µM came out at 20%.
In the case of `O=C(Nc1ccccc1Cl)Oc1ccc2cccnc2c1` [Example 9, 7-quinolyl-2-chloro carbanilate], the “Lipase % Inh. at 100 μM” value in assay [1] came to 6%.
Consider `COc1ccc(NC(=O)Oc2cccc3ncccc23)cc1` [Example 3, 5-quinolyl-4-methoxy carbanilate], for which the “Lipase % Inh. at 100 μM” value in assay [1] is reported as 63%. For the same compound, the inhibition at 30 µM in assay [2] came out at 1%.
For `COc1ccccc1NC(=O)Oc1ccc2ncccc2c1` [Example 5, 6-quinolyl-2-methoxy carbanilate], the pIC50 in assay [2] is 4.52; in assay [3], 4.38.
